One data set concerns HCT116 cells. Kind of data set: In vitro cytotoxicity measured by the cell colony formation assay. The conditions noted are these: Homo sapiens, HCT-116; read-out: IN VITRO ID 50 (nm) HCT116. In kind it is cell-based. Here is the method:
In Vitro Cytotoxicity Measured by the Cell Colony Formation Assay
Four hundred cells (HCT116) were plated in 60 mm Petri dishes containing 2.7 mL of medium (modified McCoy's 5a medium containing 10% fetal bovine serum and 100 units/mL penicillin and 100 µg/mL streptomycin). The cells were incubated in a CO2 incubator at 37° C. for 5 h for attachment to the bottom of Petri dishes. The compounds identified in Example 2 were made up fresh in medium at ten times the final concentration, and then 0.3 mL of this stock solution was added to the 2.7 mL of medium in the dish. The cells were then incubated with drugs for 72 h at 37° C. At the end of incubation the drug-containing media were decanted, the dishes were rinsed with 4 mL of Hank's Balance Salt Solution (HBSS), 5 mL of fresh medium was added, and the dishes were returned to the incubator for colony formation. The cell colonies were counted using a colony counter after incubation for 7 days.

SMILES strings stand for the structures.

The melting point is the temperature, or range, at which the solid turns liquid.

Regarding `CCNC(=O)O[C@H]1C(=O)[C@@]2(C)C([C@H](OC(=O)c3ccccc3)[C@]3(O)C[C@H](OC(=O)[C@H](O)[C@@H](NC(=O)OC(C)(C)C)c4cccs4)C(C)=C1C3(C)C)[C@]1(OC(C)=O)CO[C@@H]1C[C@@H]2O` (some centres unmarked) (hydrate or solvate) [Compound 2722, 3′-Desphenyl-3′-(2-thienyl)-10-N-ethylcarbamoyl docetaxel], the melting point is 166 to 168 °C.
As to `CCNC(=O)O[C@H]1C(=O)[C@@]2(C)C([C@H](OC(=O)c3ccccc3)[C@]3(O)C[C@H](OC(=O)[C@H](O)[C@@H](NC(=O)OC(C)(C)C)c4cccs4)C(C)=C1C3(C)C)[C@]1(OC(C)=O)CO[C@@H]1C[C@@H]2O` (some centres unmarked) [Compound 2722, 3′-Desphenyl-3′-(2-thienyl)-10-N-ethylcarbamoyl docetaxel], the IC50 with HCT116 cells is below 1 nM.

The record behind these values is patent publication US7230013B2, “C10 carbamoyloxy substituted taxane compositions” (Florida State University Research Foundation, Inc., priority 2000, dated 2007).
